The text below walks through data of publication PMC9639651, “8-Aminoinosine and 8-Aminohypoxanthine Inhibit Purine Nucleoside Phosphorylase and Exert Diuretic and Natriuretic Activity” (The Journal of Pharmacology and Experimental Therapeutics, 2022).

Each structure is given as a SMILES string.

Assay [1] addresses T1, recombinant human purine nucleoside phosphorylase (rhPNPase) (Homo sapiens, UniProt P00491).
T1 construct: gene PNP
T1 sequence (P00491 1-289): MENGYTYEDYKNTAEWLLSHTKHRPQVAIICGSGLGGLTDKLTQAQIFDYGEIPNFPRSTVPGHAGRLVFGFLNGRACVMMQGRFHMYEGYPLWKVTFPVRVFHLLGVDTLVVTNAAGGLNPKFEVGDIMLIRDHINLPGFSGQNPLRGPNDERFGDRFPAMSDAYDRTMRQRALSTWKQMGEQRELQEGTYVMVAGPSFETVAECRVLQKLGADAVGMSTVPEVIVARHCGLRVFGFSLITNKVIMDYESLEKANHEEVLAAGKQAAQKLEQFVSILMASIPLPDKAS
Briefly: biochemical.

In assay [2] the target is T1, recombinant human purine nucleoside phosphorylase (rhPNPase). Nature of the assay: HPLC-UV enzyme kinetics, guanosine as substrate (Ki […] with inosine), competitive inhibition fit. It is filed as biochemical.
Assay [3] shares this target. Nature of the assay: HPLC-UV enzyme kinetics, competitive inhibition of inosine metabolism; also Michaelis-Menten turnover to 8-aminohypoxanthine. It is filed as biochemical.
Assay [4] shares this target. Nature of the assay: Michaelis-Menten kinetics by HPLC-UV; also inhibits metabolism of 8-aminoinosine. It counts as biochemical.

For `Nc1nc2[nH]c(N)nc2c(=O)[nH]1` [8AG, 8-aminoguanine], the Ki (as a rule, the dissociation constant of the complex between target and ligand, obtained from inhibition or displacement) in assay [1] turned out to be 2.8 µM.

As for `Nc1nc2nc[nH]c(=O)c2[nH]1` [8AHX, 8-aminohypoxanthine], in assay [2], the Ki was found to be 20 µM.

For the compound `Nc1nc2c(O)ncnc2n1[C@@H]1O[C@H](CO)[C@@H](O)[C@H]1O` [8AI, 8-aminoinosine], the Ki in assay [3] was 35 µM.

In the case of `O=c1[nH]cnc2c1ncn2[C@@H]1O[C@H](CO)[C@@H](O)[C@H]1O` [inosine], the “Michaelis-Menten kinetics by HPLC-UV; also inhibits metabolism of 8-aminoinosine” value in assay [4] was “inosine competitively inhibits the metabolism of 8-aminoinosine to 8-aminohypoxanthine”.
